Our source for the residual kinase activity values is article PMC11167047 (Cell Death Discovery, 2024).

Assay in all cases: kinome screen (33PanQinase)
Format in all cases: biochemical

Assay [1] concerns the target T1, AuroraA (Homo sapiens, UniProt O14965).
T1 construct: purchased Reaction Biology Europe GmbH (formerly ProQinase)
T1 sequence (O14965 1-403): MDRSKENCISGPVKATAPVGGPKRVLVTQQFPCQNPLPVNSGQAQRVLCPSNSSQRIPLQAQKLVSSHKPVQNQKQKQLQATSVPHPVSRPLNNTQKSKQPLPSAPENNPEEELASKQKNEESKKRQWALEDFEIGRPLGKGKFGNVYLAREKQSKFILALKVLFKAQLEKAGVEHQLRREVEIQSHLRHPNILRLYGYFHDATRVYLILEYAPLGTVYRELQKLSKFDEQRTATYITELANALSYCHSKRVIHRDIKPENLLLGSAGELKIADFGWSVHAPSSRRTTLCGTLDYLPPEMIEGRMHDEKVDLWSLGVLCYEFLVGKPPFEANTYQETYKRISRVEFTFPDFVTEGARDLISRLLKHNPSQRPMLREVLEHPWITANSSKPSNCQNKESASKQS
As for the experimental part: (§1) The Kinome Screening was performed by Reaction Biology Europe GmbH (http://reactionbiology.com; Freiburg i. Br., Germany).

Assay [2] concerns the target T2, BTK (Homo sapiens, UniProt Q06187).
T2 construct: purchased Reaction Biology Europe GmbH (formerly ProQinase)
As for the experimental part:
as §1

In assay [3] the target is T3, DAPK1 (Homo sapiens, UniProt P53355).
T3 construct: purchased Reaction Biology Europe GmbH (formerly ProQinase)
T3 sequence (P53355 whole entry): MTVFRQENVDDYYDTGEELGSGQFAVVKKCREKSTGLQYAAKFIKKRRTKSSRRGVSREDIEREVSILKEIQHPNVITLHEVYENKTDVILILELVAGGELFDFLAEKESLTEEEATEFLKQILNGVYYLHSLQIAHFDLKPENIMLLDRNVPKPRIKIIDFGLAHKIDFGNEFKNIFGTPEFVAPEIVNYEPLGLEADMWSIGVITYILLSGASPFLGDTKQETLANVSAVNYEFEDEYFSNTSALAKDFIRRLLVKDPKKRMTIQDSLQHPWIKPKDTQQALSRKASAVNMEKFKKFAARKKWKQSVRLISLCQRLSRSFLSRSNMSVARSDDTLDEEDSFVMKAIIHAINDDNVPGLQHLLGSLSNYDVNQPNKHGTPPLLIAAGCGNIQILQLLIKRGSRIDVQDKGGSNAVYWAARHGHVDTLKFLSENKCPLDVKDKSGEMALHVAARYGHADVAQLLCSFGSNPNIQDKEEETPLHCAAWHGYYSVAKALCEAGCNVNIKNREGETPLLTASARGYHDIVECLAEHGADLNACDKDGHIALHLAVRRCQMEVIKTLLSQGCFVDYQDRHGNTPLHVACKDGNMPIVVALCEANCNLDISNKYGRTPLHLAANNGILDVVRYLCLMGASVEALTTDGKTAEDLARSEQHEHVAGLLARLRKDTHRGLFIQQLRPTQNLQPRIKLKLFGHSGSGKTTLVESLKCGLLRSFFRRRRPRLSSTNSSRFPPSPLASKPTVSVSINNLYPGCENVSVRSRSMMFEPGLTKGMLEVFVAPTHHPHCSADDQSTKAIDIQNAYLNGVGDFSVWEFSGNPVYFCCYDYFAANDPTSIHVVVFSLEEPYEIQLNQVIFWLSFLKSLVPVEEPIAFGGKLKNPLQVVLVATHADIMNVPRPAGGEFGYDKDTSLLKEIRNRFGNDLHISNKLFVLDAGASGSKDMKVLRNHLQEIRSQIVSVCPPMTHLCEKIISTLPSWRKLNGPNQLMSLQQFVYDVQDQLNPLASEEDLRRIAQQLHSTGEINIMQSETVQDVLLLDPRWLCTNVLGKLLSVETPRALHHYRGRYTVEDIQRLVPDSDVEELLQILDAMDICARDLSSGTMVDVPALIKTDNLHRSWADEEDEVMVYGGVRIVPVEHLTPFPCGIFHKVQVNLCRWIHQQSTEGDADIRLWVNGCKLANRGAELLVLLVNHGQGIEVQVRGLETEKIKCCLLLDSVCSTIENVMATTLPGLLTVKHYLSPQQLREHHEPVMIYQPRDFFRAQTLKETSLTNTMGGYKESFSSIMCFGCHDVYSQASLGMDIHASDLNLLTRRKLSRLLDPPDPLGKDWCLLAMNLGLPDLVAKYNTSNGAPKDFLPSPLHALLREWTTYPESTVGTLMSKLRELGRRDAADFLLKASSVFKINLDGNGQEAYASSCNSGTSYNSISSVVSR
The method, then: as §1

The target of assay [4] is T4, EEF2K (Homo sapiens, UniProt O00418).
T4 construct: purchased Reaction Biology Europe GmbH (formerly ProQinase)
T4 sequence (O00418 1-725): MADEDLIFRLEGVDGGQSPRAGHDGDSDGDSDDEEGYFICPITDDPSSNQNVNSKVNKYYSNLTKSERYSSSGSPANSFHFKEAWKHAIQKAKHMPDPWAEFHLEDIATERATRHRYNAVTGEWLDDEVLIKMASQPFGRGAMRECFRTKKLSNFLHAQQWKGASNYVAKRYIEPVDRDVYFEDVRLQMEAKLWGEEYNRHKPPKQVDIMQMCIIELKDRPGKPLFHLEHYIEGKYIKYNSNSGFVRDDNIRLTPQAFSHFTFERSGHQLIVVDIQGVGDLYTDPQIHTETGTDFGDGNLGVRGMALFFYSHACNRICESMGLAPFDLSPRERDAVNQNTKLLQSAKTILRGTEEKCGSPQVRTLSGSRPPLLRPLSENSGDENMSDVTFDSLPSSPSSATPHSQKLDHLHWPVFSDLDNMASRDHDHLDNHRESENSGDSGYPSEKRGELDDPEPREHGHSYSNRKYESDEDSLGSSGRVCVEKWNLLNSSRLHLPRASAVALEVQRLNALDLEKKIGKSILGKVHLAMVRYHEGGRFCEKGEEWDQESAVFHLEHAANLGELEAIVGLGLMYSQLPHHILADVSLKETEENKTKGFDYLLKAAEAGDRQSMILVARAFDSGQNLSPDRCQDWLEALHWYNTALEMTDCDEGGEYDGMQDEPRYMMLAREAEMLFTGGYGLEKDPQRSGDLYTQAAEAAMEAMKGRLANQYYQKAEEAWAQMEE
As for the experimental part:
as §1

Assay [5] concerns the target T5, INSR (Homo sapiens, UniProt P06213).
T5 construct: purchased Reaction Biology Europe GmbH (formerly ProQinase)
The method, then: as §1

Assay [6] deals with T6, MAP3K11 (Homo sapiens, UniProt Q16584).
T6 construct: purchased Reaction Biology Europe GmbH (formerly ProQinase)
T6 sequence (Q16584 whole entry): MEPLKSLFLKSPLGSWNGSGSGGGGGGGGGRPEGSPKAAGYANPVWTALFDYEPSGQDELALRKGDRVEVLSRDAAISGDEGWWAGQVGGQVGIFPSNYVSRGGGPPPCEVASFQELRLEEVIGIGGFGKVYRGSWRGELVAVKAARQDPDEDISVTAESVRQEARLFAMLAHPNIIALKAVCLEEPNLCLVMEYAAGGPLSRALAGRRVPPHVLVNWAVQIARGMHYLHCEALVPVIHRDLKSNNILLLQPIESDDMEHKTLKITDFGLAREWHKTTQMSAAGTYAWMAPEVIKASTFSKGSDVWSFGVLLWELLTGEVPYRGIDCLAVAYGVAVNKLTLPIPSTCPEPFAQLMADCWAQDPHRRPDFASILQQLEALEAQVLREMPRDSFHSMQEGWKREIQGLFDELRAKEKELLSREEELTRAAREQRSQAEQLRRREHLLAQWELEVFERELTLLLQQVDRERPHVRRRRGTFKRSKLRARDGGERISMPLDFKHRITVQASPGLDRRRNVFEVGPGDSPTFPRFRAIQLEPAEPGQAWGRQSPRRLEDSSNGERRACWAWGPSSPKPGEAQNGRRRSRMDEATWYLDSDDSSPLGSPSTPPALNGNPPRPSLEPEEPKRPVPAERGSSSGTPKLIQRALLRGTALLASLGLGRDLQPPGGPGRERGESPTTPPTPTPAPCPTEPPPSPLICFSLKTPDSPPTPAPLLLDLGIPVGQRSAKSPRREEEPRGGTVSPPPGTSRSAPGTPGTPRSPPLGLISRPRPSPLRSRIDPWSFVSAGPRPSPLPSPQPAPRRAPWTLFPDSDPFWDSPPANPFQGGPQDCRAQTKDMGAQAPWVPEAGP
The method, then:
as §1

Assay [7] concerns the target T7, NEK1 (Homo sapiens, UniProt Q96PY6).
T7 construct: purchased Reaction Biology Europe GmbH (formerly ProQinase)
T7 sequence (Q96PY6 1-1258): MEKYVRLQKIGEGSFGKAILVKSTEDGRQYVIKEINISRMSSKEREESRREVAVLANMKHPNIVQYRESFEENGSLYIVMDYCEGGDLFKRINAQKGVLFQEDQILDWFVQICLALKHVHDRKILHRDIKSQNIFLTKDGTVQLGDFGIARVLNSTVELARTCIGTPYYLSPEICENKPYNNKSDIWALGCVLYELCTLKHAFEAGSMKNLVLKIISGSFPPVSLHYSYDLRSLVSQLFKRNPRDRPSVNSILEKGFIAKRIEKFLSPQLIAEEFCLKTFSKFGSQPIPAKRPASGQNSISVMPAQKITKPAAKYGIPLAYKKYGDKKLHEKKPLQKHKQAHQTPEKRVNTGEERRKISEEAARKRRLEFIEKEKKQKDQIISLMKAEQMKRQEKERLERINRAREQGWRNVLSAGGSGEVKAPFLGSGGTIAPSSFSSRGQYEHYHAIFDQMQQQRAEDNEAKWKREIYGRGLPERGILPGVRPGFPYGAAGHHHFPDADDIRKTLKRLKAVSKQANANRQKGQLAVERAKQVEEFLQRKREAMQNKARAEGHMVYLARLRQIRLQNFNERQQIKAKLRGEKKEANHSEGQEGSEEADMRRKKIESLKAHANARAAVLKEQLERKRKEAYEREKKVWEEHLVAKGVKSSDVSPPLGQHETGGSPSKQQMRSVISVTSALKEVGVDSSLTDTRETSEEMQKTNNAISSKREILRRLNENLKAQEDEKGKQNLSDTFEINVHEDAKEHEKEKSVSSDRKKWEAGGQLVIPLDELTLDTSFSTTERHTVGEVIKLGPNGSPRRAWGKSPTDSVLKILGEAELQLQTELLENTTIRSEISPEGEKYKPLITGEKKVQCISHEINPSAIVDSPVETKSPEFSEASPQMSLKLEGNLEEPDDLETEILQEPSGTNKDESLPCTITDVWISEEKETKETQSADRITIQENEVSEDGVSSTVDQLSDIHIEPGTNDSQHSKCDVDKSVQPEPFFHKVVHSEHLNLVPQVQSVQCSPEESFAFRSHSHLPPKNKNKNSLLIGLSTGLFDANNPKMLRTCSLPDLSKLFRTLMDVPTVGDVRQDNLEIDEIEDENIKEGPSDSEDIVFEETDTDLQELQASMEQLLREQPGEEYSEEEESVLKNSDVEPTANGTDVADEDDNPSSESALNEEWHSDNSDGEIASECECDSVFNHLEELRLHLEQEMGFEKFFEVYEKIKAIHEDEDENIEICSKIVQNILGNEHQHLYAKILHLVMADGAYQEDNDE
The method, then:
as §1

Assay [8] concerns the target T8, PAK2 (Homo sapiens, UniProt Q13177).
T8 construct: purchased Reaction Biology Europe GmbH (formerly ProQinase)
As for the experimental part: as §1

Assay [9] addresses T9, PAK7 (Homo sapiens, UniProt Q9P286).
T9 construct: purchased Reaction Biology Europe GmbH (formerly ProQinase)
The method, then:
as §1

T8 sequence (Q13177 whole entry): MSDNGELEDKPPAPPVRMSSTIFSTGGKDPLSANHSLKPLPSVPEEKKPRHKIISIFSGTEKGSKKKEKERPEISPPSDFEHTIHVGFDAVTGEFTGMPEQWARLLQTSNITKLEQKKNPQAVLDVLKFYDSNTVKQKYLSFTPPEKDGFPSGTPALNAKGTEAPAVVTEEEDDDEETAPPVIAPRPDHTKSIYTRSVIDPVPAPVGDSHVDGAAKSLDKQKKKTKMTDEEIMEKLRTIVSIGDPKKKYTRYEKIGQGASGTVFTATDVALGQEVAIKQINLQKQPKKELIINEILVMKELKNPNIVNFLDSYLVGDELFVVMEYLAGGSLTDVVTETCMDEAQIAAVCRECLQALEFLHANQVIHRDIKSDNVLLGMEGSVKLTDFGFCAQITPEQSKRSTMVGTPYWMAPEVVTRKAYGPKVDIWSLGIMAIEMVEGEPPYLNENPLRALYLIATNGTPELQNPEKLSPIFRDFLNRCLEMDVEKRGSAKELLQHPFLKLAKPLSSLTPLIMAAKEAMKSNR
T2 sequence (Q06187 whole entry): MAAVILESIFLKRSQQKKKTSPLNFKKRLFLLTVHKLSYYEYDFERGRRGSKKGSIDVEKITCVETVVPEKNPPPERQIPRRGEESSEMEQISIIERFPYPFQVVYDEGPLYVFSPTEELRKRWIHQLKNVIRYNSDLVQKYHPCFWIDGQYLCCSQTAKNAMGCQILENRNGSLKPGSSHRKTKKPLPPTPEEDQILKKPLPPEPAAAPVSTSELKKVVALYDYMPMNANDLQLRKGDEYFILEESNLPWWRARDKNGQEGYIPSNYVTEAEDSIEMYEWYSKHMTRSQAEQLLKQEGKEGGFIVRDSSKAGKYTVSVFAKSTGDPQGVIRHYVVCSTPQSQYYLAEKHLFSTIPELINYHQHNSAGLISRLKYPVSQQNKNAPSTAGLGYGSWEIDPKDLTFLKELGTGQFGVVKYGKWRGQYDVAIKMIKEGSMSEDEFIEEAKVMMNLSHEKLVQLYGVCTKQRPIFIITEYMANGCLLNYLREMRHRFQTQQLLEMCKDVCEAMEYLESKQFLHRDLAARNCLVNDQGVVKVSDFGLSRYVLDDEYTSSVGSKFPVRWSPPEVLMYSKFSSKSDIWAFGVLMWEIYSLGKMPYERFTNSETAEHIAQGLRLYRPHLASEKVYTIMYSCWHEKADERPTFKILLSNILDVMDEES
T5 sequence (P06213 28-1382): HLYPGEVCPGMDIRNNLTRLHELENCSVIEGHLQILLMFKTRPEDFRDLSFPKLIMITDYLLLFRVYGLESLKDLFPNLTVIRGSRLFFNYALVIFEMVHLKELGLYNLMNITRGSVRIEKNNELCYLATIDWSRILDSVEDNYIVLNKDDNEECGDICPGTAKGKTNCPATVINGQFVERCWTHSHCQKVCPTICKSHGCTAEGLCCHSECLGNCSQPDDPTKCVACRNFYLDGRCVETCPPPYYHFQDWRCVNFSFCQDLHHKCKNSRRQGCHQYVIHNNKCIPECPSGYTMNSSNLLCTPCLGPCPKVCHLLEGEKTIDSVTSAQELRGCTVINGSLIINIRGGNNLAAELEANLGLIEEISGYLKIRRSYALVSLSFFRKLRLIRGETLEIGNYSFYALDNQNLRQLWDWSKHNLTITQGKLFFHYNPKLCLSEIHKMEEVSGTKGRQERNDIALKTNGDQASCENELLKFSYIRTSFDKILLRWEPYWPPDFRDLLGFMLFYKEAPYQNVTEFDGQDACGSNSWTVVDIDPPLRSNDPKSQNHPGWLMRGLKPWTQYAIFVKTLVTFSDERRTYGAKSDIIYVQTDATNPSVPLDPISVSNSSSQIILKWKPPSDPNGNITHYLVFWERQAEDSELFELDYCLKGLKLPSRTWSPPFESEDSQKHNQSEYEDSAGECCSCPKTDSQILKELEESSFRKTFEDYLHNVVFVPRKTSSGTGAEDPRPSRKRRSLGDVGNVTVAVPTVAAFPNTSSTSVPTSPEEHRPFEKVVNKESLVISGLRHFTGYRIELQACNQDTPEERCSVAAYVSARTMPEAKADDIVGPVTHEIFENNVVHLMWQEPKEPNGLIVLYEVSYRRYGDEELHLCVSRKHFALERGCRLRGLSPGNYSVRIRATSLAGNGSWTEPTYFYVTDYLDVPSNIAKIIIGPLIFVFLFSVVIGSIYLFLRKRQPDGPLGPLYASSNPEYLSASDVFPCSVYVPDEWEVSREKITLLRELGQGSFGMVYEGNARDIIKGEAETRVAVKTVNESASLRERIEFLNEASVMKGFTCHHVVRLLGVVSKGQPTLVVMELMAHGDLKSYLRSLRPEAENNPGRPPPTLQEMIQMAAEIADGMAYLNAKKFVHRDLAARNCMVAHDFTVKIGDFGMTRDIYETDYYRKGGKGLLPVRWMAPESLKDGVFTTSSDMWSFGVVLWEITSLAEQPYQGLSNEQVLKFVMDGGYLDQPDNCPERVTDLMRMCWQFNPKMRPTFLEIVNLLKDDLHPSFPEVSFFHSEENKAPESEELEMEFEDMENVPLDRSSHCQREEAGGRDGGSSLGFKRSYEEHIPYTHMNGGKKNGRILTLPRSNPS

Turning to `COc1ccnc2[nH]cc(-c3cc(N)nc(N)c3)c12` [meriolin 16], the residual kinase activity in [1] (0.03 µM) was 109 % of control; in [1] (0.3 µM), 107 % of control; in assay [2] (0.03 µM), 114 % of control; in [2] (0.3 µM), 96 % of control; in [3] (0.03 µM), 112 % of control; in assay [3] (0.3 µM), 72 % of control. The residual kinase activity is on record as 96 % of control in assay [4] (0.03 µM); 89 % of control in assay [4] (0.3 µM); 96 % of control in [5] (0.03 µM); 91 % of control in assay [5] (0.3 µM); 100 % of control in [6] (0.03 µM); 74 % of control in assay [6] (0.3 µM). For the same compound, the residual kinase activity was 86 % of control in assay [7] (0.03 µM); 67 % of control in [7] (0.3 µM); 92 % of control in assay [8] (0.03 µM); 93 % of control in [8] (0.3 µM); 89 % of control in assay [9] (0.03 µM); 81 % of control in assay [9] (0.3 µM).
Consider `c1ccc(CNc2cc(-c3c[nH]c4ncccc34)ccn2)cc1` [meriolin 36], for which the residual kinase activity in assay [1] (0.3 µM) was 81 % of control; in assay [1] (3 µM), 35 % of control; in [2] (0.3 µM) it was 103 % of control; in assay [2] (3 µM) it was 77 % of control; in assay [3] (0.3 µM), 119 % of control; in [3] (3 µM), 64 % of control. Also, the residual kinase activity in [4] (0.3 µM) was 84 % of control; in assay [4] (3 µM), 97 % of control; in assay [5] (0.3 µM), 82 % of control; in [5] (3 µM) it was 36 % of control; in assay [6] (0.3 µM) it was 45 % of control; in [6] (3 µM), 4 % of control. In addition, the residual kinase activity in [7] (0.3 µM) is 84 % of control; in assay [7] (3 µM), 55 % of control; in [8] (0.3 µM) it was 71 % of control; in assay [8] (3 µM), 17 % of control; in assay [9] (0.3 µM) it was 42 % of control; in [9] (3 µM) it was 9 % of control.
